# Source: paper PMC5404560, “Towards Selective Mycobacterial ClpP1P2 Inhibitors with Reduced Activity against the Human Proteasome” (Antimicrobial Agents and Chemotherapy, 2017)
# How the values were obtained:
# Kallikrein 1 = Kallikrein 1 (Homo sapiens, UniProt P06870); assay: Protease panel: Kallikrein 1; assay type: biochemical; conditions: supplement panel table, test and control compound
# Calpain 1 = biological target: T1, Calpain 1 (Homo sapiens, UniProt P07384); assay: Protease panel: Calpain 1; assay type: biochemical; conditions: supplement panel table, test and control compound
# T1 construct: Reaction Biology Corporation (contract testing)
# T1 sequence (P07384 whole entry): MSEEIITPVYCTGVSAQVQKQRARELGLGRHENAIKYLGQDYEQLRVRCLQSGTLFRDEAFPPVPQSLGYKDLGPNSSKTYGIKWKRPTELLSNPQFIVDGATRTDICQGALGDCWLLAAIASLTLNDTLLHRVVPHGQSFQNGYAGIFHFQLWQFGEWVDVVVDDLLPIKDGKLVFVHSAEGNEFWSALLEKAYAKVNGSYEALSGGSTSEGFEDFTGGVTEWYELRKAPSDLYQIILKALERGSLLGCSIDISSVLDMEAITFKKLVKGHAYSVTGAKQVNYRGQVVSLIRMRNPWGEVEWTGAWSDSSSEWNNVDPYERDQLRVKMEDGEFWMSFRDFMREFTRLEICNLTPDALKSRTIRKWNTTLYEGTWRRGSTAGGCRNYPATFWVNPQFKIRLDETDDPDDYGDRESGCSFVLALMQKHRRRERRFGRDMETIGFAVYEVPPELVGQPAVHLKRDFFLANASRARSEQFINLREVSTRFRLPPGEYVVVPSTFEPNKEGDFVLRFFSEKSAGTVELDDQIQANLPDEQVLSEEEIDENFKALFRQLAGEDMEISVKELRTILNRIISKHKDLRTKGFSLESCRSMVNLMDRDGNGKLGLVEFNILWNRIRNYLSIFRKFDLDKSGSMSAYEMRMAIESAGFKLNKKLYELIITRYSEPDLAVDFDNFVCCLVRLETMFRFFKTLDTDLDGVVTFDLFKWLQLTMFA
# T1 sequence (P04632 whole entry partner): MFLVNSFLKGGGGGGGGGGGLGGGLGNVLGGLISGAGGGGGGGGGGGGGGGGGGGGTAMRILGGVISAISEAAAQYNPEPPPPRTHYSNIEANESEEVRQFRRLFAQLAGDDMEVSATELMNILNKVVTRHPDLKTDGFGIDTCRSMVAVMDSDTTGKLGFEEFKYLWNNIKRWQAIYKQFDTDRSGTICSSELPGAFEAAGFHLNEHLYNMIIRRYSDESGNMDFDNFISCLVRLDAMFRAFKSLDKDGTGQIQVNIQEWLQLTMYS
# Cathepsin B = biological target: T2, Cathepsin B (Homo sapiens, UniProt P07858); assay: Protease panel: Cathepsin B; assay type: biochemical; conditions: supplement panel table, test and control compound
# T2 construct: Reaction Biology Corporation (contract testing)
# Cathepsin C = biological target: T3, Cathepsin C (Homo sapiens, UniProt P53634); assay: Protease panel: Cathepsin C; assay type: biochemical; conditions: supplement panel table, test and control compound
# T3 construct: Reaction Biology Corporation (contract testing)
# T3 sequence (P53634 25-463, species assumed): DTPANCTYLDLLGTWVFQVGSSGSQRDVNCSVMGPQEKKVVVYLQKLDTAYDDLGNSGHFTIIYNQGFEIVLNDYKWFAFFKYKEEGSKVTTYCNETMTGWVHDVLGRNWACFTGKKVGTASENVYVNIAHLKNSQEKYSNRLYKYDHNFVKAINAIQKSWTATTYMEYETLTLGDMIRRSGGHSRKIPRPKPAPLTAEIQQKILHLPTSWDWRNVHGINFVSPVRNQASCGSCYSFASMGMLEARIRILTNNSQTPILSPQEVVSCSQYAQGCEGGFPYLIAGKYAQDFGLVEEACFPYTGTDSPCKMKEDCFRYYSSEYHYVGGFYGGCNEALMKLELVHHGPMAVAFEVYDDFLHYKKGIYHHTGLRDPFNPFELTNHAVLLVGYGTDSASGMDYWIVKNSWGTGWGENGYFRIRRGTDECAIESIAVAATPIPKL
# Cathepsin H = Cathepsin H (Homo sapiens, UniProt P09668); assay: Protease panel: Cathepsin H; assay type: biochemical; conditions: supplement panel table, test and control compound
# Sequence of Cathepsin H (P09668 98-335, species assumed): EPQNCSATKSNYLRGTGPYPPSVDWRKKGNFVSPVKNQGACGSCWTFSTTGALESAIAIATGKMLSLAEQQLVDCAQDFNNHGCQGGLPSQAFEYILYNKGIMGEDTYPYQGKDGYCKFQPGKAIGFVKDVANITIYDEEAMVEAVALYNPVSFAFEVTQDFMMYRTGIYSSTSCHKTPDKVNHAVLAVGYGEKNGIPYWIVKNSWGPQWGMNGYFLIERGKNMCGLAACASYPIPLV
# Cathepsin L = Cathepsin L (Homo sapiens, UniProt P07711); assay: Protease panel: Cathepsin L; assay type: biochemical; conditions: supplement panel table, test and control compound
# Sequence of Cathepsin L (P07711 114-333, species assumed): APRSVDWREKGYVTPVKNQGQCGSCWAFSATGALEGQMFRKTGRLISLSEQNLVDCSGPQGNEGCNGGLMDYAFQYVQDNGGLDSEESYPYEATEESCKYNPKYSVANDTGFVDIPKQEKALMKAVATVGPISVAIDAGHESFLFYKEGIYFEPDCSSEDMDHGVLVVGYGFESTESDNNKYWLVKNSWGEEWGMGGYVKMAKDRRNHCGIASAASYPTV
# Cathepsin S = Cathepsin S (Homo sapiens, UniProt P25774); assay: Protease panel: Cathepsin S; assay type: biochemical; conditions: supplement panel table, test and control compound
# Sequence of Cathepsin S (P25774 115-331, species assumed): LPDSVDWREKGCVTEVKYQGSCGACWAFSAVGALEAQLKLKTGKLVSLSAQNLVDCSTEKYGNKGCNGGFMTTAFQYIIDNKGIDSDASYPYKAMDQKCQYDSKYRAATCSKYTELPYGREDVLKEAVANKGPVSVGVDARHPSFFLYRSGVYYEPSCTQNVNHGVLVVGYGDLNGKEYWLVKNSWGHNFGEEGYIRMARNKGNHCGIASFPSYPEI
# Cathepsin V = Cathepsin V (Homo sapiens, UniProt O60911); assay: Protease panel: Cathepsin V; assay type: biochemical; conditions: supplement panel table, test and control compound
# Sequence of Cathepsin V (O60911 114-334, species assumed): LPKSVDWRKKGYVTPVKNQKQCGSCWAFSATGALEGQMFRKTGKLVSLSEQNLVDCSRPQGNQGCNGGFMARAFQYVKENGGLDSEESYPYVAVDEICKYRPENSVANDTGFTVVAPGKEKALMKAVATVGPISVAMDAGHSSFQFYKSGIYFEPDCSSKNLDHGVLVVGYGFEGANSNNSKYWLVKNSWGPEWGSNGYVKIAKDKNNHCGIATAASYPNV
# Papain = biological target: T4, Papain (Carica papaya, UniProt P00784); assay: Protease panel: Papain; assay type: biochemical; conditions: supplement panel table, test and control compound
# T4 construct: Reaction Biology Corporation (contract testing)
# T4 sequence (P00784 134-345): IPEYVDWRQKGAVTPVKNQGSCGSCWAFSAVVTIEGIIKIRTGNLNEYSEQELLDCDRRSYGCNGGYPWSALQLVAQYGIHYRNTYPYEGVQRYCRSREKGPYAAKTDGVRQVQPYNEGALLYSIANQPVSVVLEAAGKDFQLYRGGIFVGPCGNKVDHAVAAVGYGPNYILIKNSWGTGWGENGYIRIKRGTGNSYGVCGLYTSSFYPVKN
# Caspase 7 = biological target: T5, Caspase 7 (Homo sapiens, UniProt P55210); assay: Protease panel: Caspase 7; assay type: biochemical; conditions: supplement panel table, test and control compound
# T5 construct: Reaction Biology Corporation (contract testing)
# T5 sequence (P55210 whole entry, species assumed): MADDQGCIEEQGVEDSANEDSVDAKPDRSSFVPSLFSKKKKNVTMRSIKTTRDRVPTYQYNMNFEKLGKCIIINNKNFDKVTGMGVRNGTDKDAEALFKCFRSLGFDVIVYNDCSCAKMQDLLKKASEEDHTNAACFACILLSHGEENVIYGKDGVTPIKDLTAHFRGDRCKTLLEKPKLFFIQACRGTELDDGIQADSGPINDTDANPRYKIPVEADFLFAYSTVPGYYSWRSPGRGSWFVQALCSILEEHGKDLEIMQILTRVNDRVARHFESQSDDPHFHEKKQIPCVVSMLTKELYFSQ
# Neprilysin = biological target: T6, Neprilysin (Homo sapiens, UniProt P08473); assay: Protease panel: Neprilysin; assay type: biochemical; conditions: supplement panel table, test and control compound
# T6 construct: Reaction Biology Corporation (contract testing)
# T6 sequence (P08473 whole entry, species assumed): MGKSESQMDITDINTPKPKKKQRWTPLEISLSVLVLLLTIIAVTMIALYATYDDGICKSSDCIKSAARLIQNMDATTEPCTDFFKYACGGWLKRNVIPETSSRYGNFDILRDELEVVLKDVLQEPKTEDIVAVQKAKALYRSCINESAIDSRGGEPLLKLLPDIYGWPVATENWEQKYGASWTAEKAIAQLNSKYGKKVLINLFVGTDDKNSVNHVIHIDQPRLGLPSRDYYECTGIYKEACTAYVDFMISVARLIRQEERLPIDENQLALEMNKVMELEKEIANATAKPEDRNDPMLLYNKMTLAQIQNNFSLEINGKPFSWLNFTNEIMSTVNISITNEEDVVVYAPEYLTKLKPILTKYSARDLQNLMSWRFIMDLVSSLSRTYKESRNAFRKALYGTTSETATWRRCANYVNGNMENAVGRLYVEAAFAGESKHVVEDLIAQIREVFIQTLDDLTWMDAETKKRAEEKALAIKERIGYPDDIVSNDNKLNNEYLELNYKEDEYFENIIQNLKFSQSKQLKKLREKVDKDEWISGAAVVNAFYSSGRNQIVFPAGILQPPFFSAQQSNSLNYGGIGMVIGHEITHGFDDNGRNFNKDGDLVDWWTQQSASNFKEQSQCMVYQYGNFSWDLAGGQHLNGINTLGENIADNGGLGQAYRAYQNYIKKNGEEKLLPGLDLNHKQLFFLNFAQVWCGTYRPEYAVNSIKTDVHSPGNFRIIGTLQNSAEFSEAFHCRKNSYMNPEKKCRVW
# Experimental: (§1) Protease panel testing was carried out by Reaction Biology Corporation.
# M. smegmatis ΔprcAB = assay type: cell-based; conditions: 24 h exposure, OD600; concentration inhibiting 50% of growth
# M. tuberculosis H37Rv = assay: microbe, parasite or virus in culture; assay type: cell-based; conditions: Mycobacterium tuberculosis, H37RV, 120 h, 5 days
# ClpP1P2 = ClpP1P2 (Mycolicibacterium smegmatis, UniProt A0R197+A0R198); assay: ClpP1P2 inhibition whole-cell RFP-SsrA reporter assay; conditions: M. smegmatis ΔprcAB IC50 (μM) for ClpP1P2, whole-cell RFP-SsrA reporter, 3 h incubation
# HepG2 proteasome = HepG2 proteasome (Homo sapiens, UniProt P20618+P28074); assay: Cell-based proteasome CT-like peptidase inhibition assay (Proteasome-Glo)
# Experimental: A cell-based CT-like peptidase assay was performed using the Proteasome-Glo cell-based assay reagent (Promega) according to the manufacturer's guidelines. Briefly, HepG2 cells (10^4 cells/well) were treated with the compounds indicated in the figures for 2 h, followed by incubation with the luminescent substrate for 10 min. Luminescence was detected with a Tecan M200 Pro plate reader.
# ADAM10 = biological target: T7, ADAM10 (Homo sapiens, UniProt O14672); assay: Protease panel: ADAM10; assay type: biochemical; conditions: supplement panel table, test and control compound
# T7 construct: Reaction Biology Corporation (contract testing)
# T7 sequence (O14672 214-748, species assumed): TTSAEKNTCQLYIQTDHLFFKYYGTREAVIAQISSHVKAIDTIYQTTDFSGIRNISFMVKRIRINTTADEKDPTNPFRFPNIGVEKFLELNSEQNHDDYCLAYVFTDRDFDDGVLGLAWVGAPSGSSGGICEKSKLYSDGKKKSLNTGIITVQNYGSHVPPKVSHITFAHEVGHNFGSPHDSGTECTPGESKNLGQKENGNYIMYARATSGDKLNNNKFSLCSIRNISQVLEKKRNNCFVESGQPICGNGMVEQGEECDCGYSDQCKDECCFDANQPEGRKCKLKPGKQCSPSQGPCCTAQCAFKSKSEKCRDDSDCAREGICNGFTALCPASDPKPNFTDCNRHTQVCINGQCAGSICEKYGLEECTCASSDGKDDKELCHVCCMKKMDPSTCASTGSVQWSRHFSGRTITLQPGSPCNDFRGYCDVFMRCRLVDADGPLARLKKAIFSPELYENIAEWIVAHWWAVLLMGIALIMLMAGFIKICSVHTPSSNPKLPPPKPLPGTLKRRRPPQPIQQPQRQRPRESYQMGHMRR
# MMP 3 = MMP 3 (Homo sapiens, UniProt P08254); assay: Protease panel: MMP 3; assay type: biochemical; conditions: supplement panel table, test and control compound
# Experimental: as §1
# MMP 7 = MMP 7 (Homo sapiens, UniProt P09237); assay: Protease panel: MMP 7; assay type: biochemical; conditions: supplement panel table, test and control compound
# Sequence of MMP 7 (P09237 95-267, species assumed): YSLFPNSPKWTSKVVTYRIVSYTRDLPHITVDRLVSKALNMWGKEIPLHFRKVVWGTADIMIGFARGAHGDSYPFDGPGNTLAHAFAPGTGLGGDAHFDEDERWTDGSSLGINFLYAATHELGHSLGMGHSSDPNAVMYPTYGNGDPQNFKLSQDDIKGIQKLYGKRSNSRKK
# Experimental: as §1
# MMP 12 = biological target: T8, MMP 12 (Homo sapiens, UniProt P39900); assay: Protease panel: MMP 12; assay type: biochemical; conditions: supplement panel table, test and control compound
# T8 construct: Reaction Biology Corporation (contract testing)
# Experimental: as §1
# MMP 14 = MMP 14 (Homo sapiens, UniProt P50281); assay: Protease panel: MMP 14; assay type: biochemical; conditions: supplement panel table, test and control compound
# Experimental: as §1
# MMP 13 = MMP 13 (Homo sapiens, UniProt P45452); assay: biochemical
# TACE = TACE (Homo sapiens, UniProt P78536); assay: biochemical
# Cathepsin G = biological target: T9, Cathepsin G (Homo sapiens, UniProt P08311); assay: Protease panel: Cathepsin G; assay type: biochemical; conditions: supplement panel table, test and control compound
# T9 construct: Reaction Biology Corporation (contract testing)
# T9 sequence (P08311 21-255, species assumed): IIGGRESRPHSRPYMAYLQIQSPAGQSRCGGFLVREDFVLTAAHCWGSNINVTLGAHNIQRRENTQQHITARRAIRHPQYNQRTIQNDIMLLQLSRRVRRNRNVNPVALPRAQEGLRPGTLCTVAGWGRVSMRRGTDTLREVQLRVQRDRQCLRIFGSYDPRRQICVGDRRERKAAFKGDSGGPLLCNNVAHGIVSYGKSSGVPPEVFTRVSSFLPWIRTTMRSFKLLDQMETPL
# Chymase = Chymase (Homo sapiens, UniProt P23946); assay: Protease panel: Chymase; assay type: biochemical; conditions: supplement panel table, test and control compound
# Sequence of Chymase (P23946 22-247, species assumed): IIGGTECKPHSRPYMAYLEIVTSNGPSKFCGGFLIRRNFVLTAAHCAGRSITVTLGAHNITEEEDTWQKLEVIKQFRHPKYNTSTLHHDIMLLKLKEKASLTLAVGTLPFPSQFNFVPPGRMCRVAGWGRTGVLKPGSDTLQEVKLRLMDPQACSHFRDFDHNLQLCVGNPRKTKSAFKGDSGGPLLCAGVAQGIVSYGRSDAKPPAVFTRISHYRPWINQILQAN
structure (smiles),measurement,setting,value
"CC(=O)N[C@@H](CC(C)C)C(=O)N[C@@H](CC(C)C)C(=O)N[C@H](C=O)CCCNC(=N)N [Leupeptin, reference compound]",IC50,Kallikrein 1,26.7 µM
CC(C)C[C@H](NC(=O)[C@H]1O[C@@H]1C(=O)O)C(=O)NCCCCN=C(N)N [Compound E64],IC50,Calpain 1,0.098 µM
same,IC50,Cathepsin B,0.00987 µM
same,IC50,Cathepsin C,0.607 µM
same,IC50,Cathepsin H,0.198 µM
same,IC50,Cathepsin L,0.00999 µM
same,IC50,Cathepsin S,0.00939 µM
same,IC50,Cathepsin V,0.0118 µM
same,IC50,Papain,0.000936 µM
CC(=O)N[C@@H](CC(=O)O)C(=O)N[C@@H](CCC(=O)O)C(=O)N[C@H](C(=O)N[C@H](C=O)CC(=O)O)C(C)C [DEVD-CHO],IC50,Caspase 7,0.0011 µM
CC(C)C[C@H](NP(=O)(O)O[C@@H]1O[C@@H](C)[C@H](O)[C@@H](O)[C@H]1O)C(=O)N[C@@H](Cc1c[nH]c2ccccc12)C(=O)O [Phosphoramidon],IC50,Neprilysin,0.0422 µM
"O=C(N[C@@H](Cc1ccccc1)C(=O)N[C@@H](CCc1ccccc1)B(O)O)c1ccccc1 [Compound 51, ((R)-1-((S)-2-benzamido-3-phenylpropanamido)-3-phenylpropyl)boronic acid]",M. smegmatis ΔprcAB MIC50,M. smegmatis ΔprcAB,2.7 ± 0.5 µM
same,MIC50,M. tuberculosis H37Rv; read-out: MIC50 (μM) against M. tuberculosis H37Rv,1 ± 0.2 µM
same,MIC90,M. tuberculosis H37Rv; read-out: MIC90 (μM) against M. tuberculosis H37Rv,6 ± 0.2 µM
same,IC50,ClpP1P2,1.5 ± 0.5 µM
same,IC50,HepG2 proteasome,167 ± 59 nM
CNC(=O)[C@H](Cc1c[nH]c2ccccc12)NC(=O)[C@@H](CC(=O)NO)CC(C)C [GM6001],IC50,ADAM10,0.0811 µM
same,IC50,MMP 3,0.0163 µM
same,IC50,MMP 7,0.00438 µM
same,IC50,MMP 12,0.00117 µM
same,IC50,MMP 14,0.00124 µM
same,IC50,MMP 13,0.535 nM
same,IC50,TACE,9.1 nM
"CC(C)C[C@H](NC(=O)[C@@H](NC(=O)N[C@@H](Cc1ccccc1)C(=O)O)[C@@H]1CCN=C(N)N1)C(=O)N[C@H](C=O)Cc1ccccc1 [Chymostatin, reference compound]",IC50,Cathepsin G,3.83 µM
same,IC50,Chymase,0.0915 µM
